# In PMC11822212, “High-throughput screening identifies Aurora kinase B as a critical therapeutic target for Merkel cell carcinoma” (Nature Communications, 2025):
# Where a name gives a salt, the structure may show the parent alone.
# Columns and labels:
# [1] = tested on: WAGA cells (VP-MCC); experiment: qHTS cell viability (CellTiter-Glo, 72 h; primary and follow-up small molecule screen); type: cell-based, human
# [2] = tested on: HACAT cells; experiment: qHTS cell viability (CellTiter-Glo, 72 h; primary screen), control cell line; type: cell-based, human
# [3] = tested on: control cell lines (HACAT, HEK293T, CRL-7250, NIH-3T3); experiment: qHTS cell viability, control cell lines as a group (mean AUC, Control.avg); type: cell-based; conditions: mean AUC of control cell lines
# [4] = tested on: MCC cell lines (WAGA, MKL-1, MKL-2, MCC13, MCC26, UISO); experiment: qHTS cell viability, all six MCC cell lines as a group (mean AUC, MCC.avg); type: cell-based, human; conditions: mean AUC of six MCC cell lines
# [5] = tested on: MCC13 cells (VN-MCC); experiment: qHTS cell viability (CellTiter-Glo, 72 h; primary and follow-up small molecule screen); type: cell-based, human
# [6] = tested on: MCC26 cells (VN-MCC); experiment: as above; type: cell-based, human
# [7] = tested on: six MCC cell lines and four control cell lines; experiment: qHTS cell viability, all 10 cell lines screened; type: cell-based
# [8] = tested on: MKL-1 cells (VP-MCC); experiment: qHTS cell viability (CellTiter-Glo, 72 h; primary and follow-up small molecule screen); type: cell-based, human
# [9] = tested on: NIH-3T3 cells; experiment: qHTS cell viability (CellTiter-Glo, 72 h; primary screen), control cell line; type: cell-based, mouse
# [10] = tested on: VP-MCC cell lines (WAGA, MKL-1, MKL-2); experiment: qHTS cell viability, VP-MCC cell lines as a group (mean AUC, VP.MCC.avg); type: cell-based, human; conditions: for VP-MCC_Avg_AUC: mean AUC of VP-MCC cell lines
# [11] = tested on: HEK293T cells; experiment: qHTS cell viability (CellTiter-Glo, 72 h; primary screen), control cell line; type: cell-based, human
# [12] = tested on: UISO cells (VN-MCC); experiment: qHTS cell viability (CellTiter-Glo, 72 h; primary and follow-up small molecule screen); type: cell-based, human
# [13] = tested on: MKL-2 cells (VP-MCC); experiment: as above; type: cell-based, human
# [14] = tested on: VN-MCC cell lines (MCC13, MCC26, UISO); experiment: qHTS cell viability, VN-MCC cell lines as a group (mean AUC, VN.MCC.avg); type: cell-based, human; conditions: for VN-MCC_Avg_AUC: mean AUC of VN-MCC cell lines
# [15] = tested on: CRL-7250 cells; experiment: qHTS cell viability (CellTiter-Glo, 72 h; primary screen), control cell line; type: cell-based
# [16] = NPC library, qHTS dose-response AUC, WAGA
# [17] = NPC library, qHTS dose-response AUC, HACAT control
# [18] = NPC library, qHTS dose-response AUC, MCC26
# [19] = NPC library, therapeutic window: Control avg AUC minus MCC avg AUC
# [20] = NPC library, qHTS dose-response AUC, MKL1
# [21] = NPC library, qHTS dose-response AUC, NIH3T3 control
# [22] = NPC library, therapeutic window: Control avg AUC minus VP-MCC avg AUC
# [23] = NPC library, qHTS dose-response AUC, HEK293T control
# [24] = NPC library, qHTS dose-response AUC, UISO
# [25] = NPC library, qHTS dose-response AUC, MKL2
# [26] = NPC library, therapeutic window: Control avg AUC minus VN-MCC avg AUC
# [27] = NPC library, qHTS dose-response AUC, CRL7250 control
# [28] = MIPE library, 11-point DRC, sheet S2D
# [29] = MIPE library, 11-point DRC, sheet S2E
# [30] = MIPE library, 11-point DRC, control cell line, sheet S2D
# [31] = MIPE library, 11-point DRC, control cell line, sheet S2E
compound,measurement,setting,value
Cc1cc(OCCOCC[N+](C)(C)Cc2ccccc2)ccc1C(C)(C)CC(C)(C)C.[Cl-] [Methylbenzethonium chloride],WAGA_AUC,[1]; [16],200.731
same,HACAT_AUC,[2]; [17],428.465
same,Control_Avg_AUC,[3]; NPC library,414.956
same,MCC_Avg_AUC,[4]; NPC library,338.857
same,MCC13_AUC,"[5]; NPC library, qHTS dose-response AUC, MCC13",479.749
same,MCC26_AUC,[6]; [18],455.487
same,Control-MCC,[7]; [19],76.0988
same,MKL1_AUC,[8]; [20],312.601
same,NIH3T3_AUC,[9]; [21],469.697
same,VP-MCC_Avg_AUC,[10]; NPC library,240.895
same,Control-VP-MCC,[10]; [22],174.06
same,HEK293T_AUC,[11]; [23],317.092
same,UISO_AUC,[12]; [24],375.218
same,MKL2_AUC,[13]; [25],209.354
same,VN-MCC_Avg_AUC,[14]; NPC library,436.818
same,Control-VN-MCC,[14]; [26],-21.8625
same,CRL7250_AUC,[15]; [27],444.568
CC[C@@]1(O)C(=O)OCc2c1cc1n(c2=O)Cc2cc3c(CN(C)C)c(O)ccc3nc2-1 [Topotecan HCl],WAGA_AUC,[1]; [28],175.987
same,WAGA_AUC,[1]; [29],175.987
same,WAGA_AUC,[1]; [16],138.765
same,Area under the dose-response curve (AUC) WAGA Replicate 1,"[1]; follow-up screen, WAGA, replicate 1",206.9
same,Area under the dose-response curve (AUC) WAGA Replicate 2,"[1]; follow-up screen, WAGA, replicate 2",188.0
same,Area under the dose-response curve (AUC) WAGA Replicate 3,"[1]; follow-up screen, WAGA, replicate 3",185.4
same,HACAT_AUC,[2]; [30],331.992
same,HACAT_AUC,[2]; [31],331.992
same,HACAT_AUC,[2]; [17],242.195
same,Control_Avg_AUC,"[3]; MIPE library, sheet S2D",345.124
same,Control_Avg_AUC,"[3]; MIPE library, sheet S2E",345.124
same,Control_Avg_AUC,[3]; NPC library,300.661
same,MCC_Avg_AUC,"[4]; MIPE library, sheet S2D",267.463
same,MCC_Avg_AUC,"[4]; MIPE library, sheet S2E",267.463
same,MCC_Avg_AUC,[4]; NPC library,219.265
same,MCC13_AUC,[5]; [28],336.51
same,MCC13_AUC,[5]; [29],336.51
same,MCC26_AUC,[6]; [28],328.226
same,MCC26_AUC,[6]; [29],328.226
same,MCC26_AUC,[6]; [18],267.734
same,Area under the dose-response curve (AUC) MCC26 Replicate 1,"[6]; follow-up screen, MCC26, replicate 1",273.0
same,Area under the dose-response curve (AUC) MCC26 Replicate 2,"[6]; follow-up screen, MCC26, replicate 2",257.6
same,Area under the dose-response curve (AUC) MCC26 Replicate 3,"[6]; follow-up screen, MCC26, replicate 3",280.5
same,Control-MCC,"[7]; MIPE library, Control AUC minus MCC AUC (therapeutic window), sheet S2D",77.6607
same,Control-MCC,"[7]; MIPE library, Control AUC minus MCC AUC (therapeutic window), sheet S2E",77.6607
same,Control-MCC,[7]; [19],81.3959
same,MKL1_AUC,[8]; [28],269.988
same,MKL1_AUC,[8]; [29],269.988
same,MKL1_AUC,[8]; [20],185.429
same,Area under the dose-response curve (AUC) MKL-1 Replicate 1,"[8]; follow-up screen, MKL-1, replicate 1",222.0
same,Area under the dose-response curve (AUC) MKL-1 Replicate 2,"[8]; follow-up screen, MKL-1, replicate 2",224.3
same,Area under the dose-response curve (AUC) MKL-1 Replicate 3,"[8]; follow-up screen, MKL-1, replicate 3",226.9
same,NIH3T3_AUC,[9]; [30],368.835
same,NIH3T3_AUC,[9]; [31],368.835
same,NIH3T3_AUC,[9]; [21],374.778
same,Control-VP-MCC,"[10]; MIPE library, Control AUC minus VP-MCC AUC (therapeutic window), sheet S2D",112.898
same,Control-VP-MCC,"[10]; MIPE library, Control AUC minus VP-MCC AUC (therapeutic window), sheet S2E",112.898
same,VP-MCC_Avg_AUC,"[10]; MIPE library, sheet S2D",232.226
same,VP-MCC_Avg_AUC,"[10]; MIPE library, sheet S2E",232.226
same,VP-MCC_Avg_AUC,[10]; NPC library,166.29
same,Control-VP-MCC,[10]; [22],134.37
same,HEK293T_AUC,[11]; [30],287.732
same,HEK293T_AUC,[11]; [31],287.732
same,HEK293T_AUC,[11]; [23],225.562
same,UISO_AUC,[12]; [28],243.367
same,UISO_AUC,[12]; [29],243.367
same,UISO_AUC,[12]; [24],244.938
same,Area under the dose-response curve (AUC) UISO Replicate 1,"[12]; follow-up screen, UISO, replicate 1",203.8
same,Area under the dose-response curve (AUC) UISO Replicate 2,"[12]; follow-up screen, UISO, replicate 2",226.9
same,Area under the dose-response curve (AUC) UISO Replicate 3,"[12]; follow-up screen, UISO, replicate 3",223.1
same,MKL2_AUC,[13]; [28],250.703
same,MKL2_AUC,[13]; [29],250.703
same,MKL2_AUC,[13]; [25],174.677
same,Area under the dose-response curve (AUC) MKL-2 Replicate 1,"[13]; follow-up screen, MKL-2, replicate 1",184.1
same,Area under the dose-response curve (AUC) MKL-2 Replicate 2,"[13]; follow-up screen, MKL-2, replicate 2",181.9
same,Area under the dose-response curve (AUC) MKL-2 Replicate 3,"[13]; follow-up screen, MKL-2, replicate 3",262.9
same,Control-VN-MCC,"[14]; MIPE library, Control AUC minus VN-MCC AUC (therapeutic window), sheet S2D",42.4232
same,Control-VN-MCC,"[14]; MIPE library, Control AUC minus VN-MCC AUC (therapeutic window), sheet S2E",42.4232
same,VN-MCC_Avg_AUC,"[14]; MIPE library, sheet S2D",302.701
same,VN-MCC_Avg_AUC,"[14]; MIPE library, sheet S2E",302.701
same,VN-MCC_Avg_AUC,[14]; NPC library,272.239
same,Control-VN-MCC,[14]; [26],28.4215
same,CRL7250_AUC,[15]; [30],391.937
same,CRL7250_AUC,[15]; [31],391.937
same,CRL7250_AUC,[15]; [27],360.108
